One data set concerns the target Cholinesterase (Homo sapiens, UniProt P06276).
For data set [1], the target named is T1, Acetylcholinesterase (Electrophorus electricus, UniProt O42275).
Description: Inhibition of electric eel AChE using acetylthiocholine iodide as substrate incubated for 5 mins followed by substrate addition measured for 1 min by Ellman's method
Data set [2] can be described thus: in vitro. The conditions noted are these: human, HepG2 cells.
Description: Cytotoxicity against human HepG2 cells assessed as cell viability at 300 uM after 24 hrs by MTT assay
Data set [3] in a line: in vitro. The conditions noted are these: human, HepG2 cells. This is another data set of the same source.
Description: Cytotoxicity against human HepG2 cells assessed as cell viability at 5 uM after 24 hrs by MTT assay
The nature of data set [4]: in vitro. The conditions noted are these: human, HepG2 cells. This is another data set of the same source.
Description: Cytotoxicity against human HepG2 cells assessed as cell viability at 10 uM after 24 hrs by MTT assay
A short description of data set [5]: in vitro. The conditions noted are these: human, HepG2 cells. The source holds these as a separate data set.
Description: Cytotoxicity against human HepG2 cells assessed as cell viability at 25 uM after 24 hrs by MTT assay
Data set [6] in a line: in vitro. The conditions noted are these: human, HepG2 cells. This is another data set of the same source.
Description: Cytotoxicity against human HepG2 cells assessed as cell viability at 1 uM after 24 hrs by MTT assay
The nature of data set [7]: in vitro. The conditions noted are these: human, HepG2 cells. The source holds these as a separate data set.
Description: Cytotoxicity against human HepG2 cells assessed as cell viability at 100 uM after 24 hrs by MTT assay
The nature of data set [8]: in vitro. The conditions noted are these: human, HepG2 cells. This is another data set of the same source.
Description: Cytotoxicity against human HepG2 cells assessed as cell viability at 50 uM after 24 hrs by MTT assay
In data set [9] the target is T1, Acetylcholinesterase. Description: Mixed type inhibition of electric eel AChE using acetylthiocholine iodide as substrate incubated for 5 mins followed by substrate addition measured for 1 min by Lineweaver-Burk plot analysis.
Data set [10] concerns the target Acetylcholinesterase (Electrophorus electricus) (UniProt O42275). Description: Potency index, ratio of tacrine IC50 to compound IC50 for electric eel AChE.

In general, pIC50 refers to −log10 of the IC50, conventionally taken in molar units. Low readings indicate a large IC50, high ones a small IC50. By viability is commonly meant a read-out of living cells in per cent, often relative to untreated cells. Broadly, the pKi is the negative decadic logarithm of the Ki, by convention in mol/L.

pIC50, pKi: −log10 of the molar value.

Cholinesterase, sequence (P06276 whole entry): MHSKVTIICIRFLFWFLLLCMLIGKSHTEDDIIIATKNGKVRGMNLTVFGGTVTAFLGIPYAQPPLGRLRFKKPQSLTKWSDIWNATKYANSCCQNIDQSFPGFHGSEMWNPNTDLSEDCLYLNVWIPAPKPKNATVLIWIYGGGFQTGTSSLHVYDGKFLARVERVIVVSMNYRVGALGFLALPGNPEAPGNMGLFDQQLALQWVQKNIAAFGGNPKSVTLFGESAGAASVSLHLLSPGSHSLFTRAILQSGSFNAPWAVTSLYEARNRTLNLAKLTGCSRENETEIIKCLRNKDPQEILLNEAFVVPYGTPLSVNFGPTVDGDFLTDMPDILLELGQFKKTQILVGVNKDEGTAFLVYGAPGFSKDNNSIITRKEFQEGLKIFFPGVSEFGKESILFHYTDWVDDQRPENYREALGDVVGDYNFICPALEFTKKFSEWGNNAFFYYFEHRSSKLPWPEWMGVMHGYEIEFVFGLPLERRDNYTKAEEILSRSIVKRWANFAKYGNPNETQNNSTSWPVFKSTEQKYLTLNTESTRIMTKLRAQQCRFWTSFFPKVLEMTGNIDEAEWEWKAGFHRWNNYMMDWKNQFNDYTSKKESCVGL
T1 sequence (O42275 whole entry): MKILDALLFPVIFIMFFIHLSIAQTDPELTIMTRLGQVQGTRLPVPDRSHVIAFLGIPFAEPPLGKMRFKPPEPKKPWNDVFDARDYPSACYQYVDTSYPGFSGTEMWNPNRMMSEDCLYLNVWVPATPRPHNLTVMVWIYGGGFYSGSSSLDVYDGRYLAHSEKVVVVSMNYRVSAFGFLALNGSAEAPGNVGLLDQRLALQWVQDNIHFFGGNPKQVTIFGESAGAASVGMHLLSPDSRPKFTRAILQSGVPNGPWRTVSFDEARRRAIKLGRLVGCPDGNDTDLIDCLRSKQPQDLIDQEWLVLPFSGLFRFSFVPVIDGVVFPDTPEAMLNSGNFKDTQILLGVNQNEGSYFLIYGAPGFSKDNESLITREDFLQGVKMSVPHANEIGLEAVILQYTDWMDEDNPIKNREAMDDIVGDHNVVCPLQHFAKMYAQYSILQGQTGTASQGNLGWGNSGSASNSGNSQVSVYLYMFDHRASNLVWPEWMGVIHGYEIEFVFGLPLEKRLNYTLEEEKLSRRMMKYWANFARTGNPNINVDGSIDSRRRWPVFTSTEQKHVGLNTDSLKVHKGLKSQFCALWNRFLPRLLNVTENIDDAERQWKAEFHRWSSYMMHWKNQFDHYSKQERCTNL
Acetylcholinesterase (Electrophorus electricus), sequence (O42275 24-633 limits assumed): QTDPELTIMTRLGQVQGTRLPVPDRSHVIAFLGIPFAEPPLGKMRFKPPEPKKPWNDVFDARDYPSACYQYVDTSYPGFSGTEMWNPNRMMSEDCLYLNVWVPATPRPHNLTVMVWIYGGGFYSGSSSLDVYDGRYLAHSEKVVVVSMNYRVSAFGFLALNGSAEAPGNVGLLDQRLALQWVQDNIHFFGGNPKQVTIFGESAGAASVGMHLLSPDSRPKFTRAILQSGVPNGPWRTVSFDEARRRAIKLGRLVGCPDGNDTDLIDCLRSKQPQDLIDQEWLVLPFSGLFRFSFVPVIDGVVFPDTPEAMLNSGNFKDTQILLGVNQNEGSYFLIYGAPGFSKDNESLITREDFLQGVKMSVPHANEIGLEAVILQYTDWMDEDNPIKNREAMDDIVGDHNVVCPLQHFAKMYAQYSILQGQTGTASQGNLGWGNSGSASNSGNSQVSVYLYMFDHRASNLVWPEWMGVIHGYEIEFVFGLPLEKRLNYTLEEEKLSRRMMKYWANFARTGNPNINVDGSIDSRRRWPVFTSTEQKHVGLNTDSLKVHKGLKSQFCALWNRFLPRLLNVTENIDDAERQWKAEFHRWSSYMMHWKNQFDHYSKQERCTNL

With `Nc1c2c(nc3c1C(c1ccccc1)c1c(-c4ccco4)n[nH]c1O3)CCCC2` (stereo unspecified), the results for the pIC50 against Cholinesterase and against Acetylcholinesterase [1] were 7.82 and 7.00, respectively.
For the compound `Nc1c2c(nc3c1C(c1ccccc1)c1c(-c4ccccc4)nn(-c4ccccc4)c1O3)CCCC2` (stereo unspecified), the negative-log IC50 (pIC50) against Cholinesterase and against Acetylcholinesterase [1] was less than 3.70 in each case.
For `CCCc1n[nH]c2c1C(c1cc(OC)c(OC)c(OC)c1)c1c(nc3c(c1N)CCCC3)O2` (stereo unspecified), the negative-log IC50 (pIC50) against Cholinesterase was 7.38; at Acetylcholinesterase [1] it was 6.05.
With `COc1cc(C2c3c(-c4ccccc4)n[nH]c3Oc3nc4c(c(N)c32)CCCC4)cc(OC)c1OC` (stereo unspecified), the figures for the negative logarithm of the IC50 (pIC50) against Cholinesterase and on Acetylcholinesterase [1] were 7.19 and 5.99, respectively.
In the same order, the values of `Nc1c2c(nc3c1C(c1ccc(Cl)cc1)c1c(-c4ccccc4)n[nH]c1O3)CCSC2` (stereo unspecified) are 7.52 and 6.35.
With `CCCc1n[nH]c2c1C(c1ccc(N(C)C)cc1)c1c(nc3c(c1N)CCCC3)O2` (stereo unspecified), the pIC50 is 7.62 against Cholinesterase and 6.46 on Acetylcholinesterase [1].
In the same order, the values of `CCCc1n[nH]c2c1C(c1ccc(C#N)cc1)c1c(nc3c(c1N)CCCC3)O2` (stereo unspecified) are 7.43 and 6.02.
In the same order, the values of `CCCc1n[nH]c2c1C(c1ccccc1)c1c(nc3c(c1N)CCCCC3)O2` (stereo unspecified) are 7.37 and 6.19.
On to `COc1ccc(C2c3c(-c4ccccc4)n[nH]c3Oc3cc4c(c(N)c32)CCCC4)cc1` (stereo unspecified), for which the viability at 24 h, 300 µM in “in vitro [2]” is 71.3%. In addition, the negative logarithm of the IC50 (pIC50) against Cholinesterase was 8.15; at Acetylcholinesterase [1] it was 7.09. Moreover, in “in vitro [3]”, the viability at 24 h, 5 µM was 99.4%. Also, the viability at 24 h, 10 µM in the data set “in vitro [4]” worked out at 99.7%. Besides, in the data set “in vitro [5]”, the viability at 24 h, 25 µM turned out to be 99.7%. In addition, the viability at 24 h, 1 µM in “in vitro [6]” was determined as 99.1%. Moreover, in the data set “in vitro [7]”, the viability at 24 h, 100 µM was found to be 85.6%. Further, in the data set “in vitro [8]”, the viability at 24 h, 50 µM is 98.2%.
Regarding `CCCc1n[nH]c2c1C(c1ccc(Cl)cc1)c1c(nc3c(c1N)CCCCC3)O2` (stereo unspecified), the negative-log IC50 (pIC50) against Cholinesterase was 7.12; against Acetylcholinesterase [1], 5.97.
In the case of `Nc1c2c(cc3c1C(c1ccc(F)cc1)c1c(-c4ccccc4)n[nH]c1O3)CCCC2` (stereo unspecified), in “in vitro [2]”, the viability at 24 h, 300 µM came to 73.4%. The pIC50 against Cholinesterase is 8.15; against Acetylcholinesterase [1], 7.47. The viability at 24 h, 5 µM in the data set “in vitro [3]” was 100%. At Acetylcholinesterase [9], this compound gave a pKi of 6.31. For the same compound, in the data set “in vitro [4]”, the viability at 24 h, 10 µM is 100%. Also, the viability at 24 h, 25 µM in the data set “in vitro [5]” is 99.7%. The viability at 24 h, 1 µM in the data set “in vitro [6]” worked out at 101%. For the same compound, in data set [10], the Ratio IC50 is 6. Further, the viability at 24 h, 100 µM in “in vitro [7]” stood at 89.9%. The viability at 24 h, 50 µM in “in vitro [8]” came out at 98.4%.
As for `Nc1c2c(cc3c1C(c1ccccc1)c1c(-c4ccccc4)n[nH]c1O3)CCCC2` (stereo unspecified), the results for the pIC50 on Cholinesterase and against Acetylcholinesterase [1] were 8.10 and 6.85, respectively.
As for `CCCc1n[nH]c2c1C(c1ccccc1OC)c1c(nc3c(c1N)CCCC3)O2` (stereo unspecified), the negative-log IC50 (pIC50) against Cholinesterase is 7.74; against Acetylcholinesterase [1], 6.33.
Consider `CCCc1n[nH]c2c1C(c1ccc(SC)cc1)c1c(nc3c(c1N)CCCC3)O2` (stereo unspecified), for which the pIC50 against Cholinesterase was 8.10; against Acetylcholinesterase [1], 6.70.
On to `CCCc1n[nH]c2c1C(c1ccc(OC)cc1)c1c(nc3c(c1N)CCCC3)O2` (stereo unspecified), for which the results for the pIC50 on Cholinesterase and at Acetylcholinesterase [1] were 8.22 and 7.28, respectively.
`Nc1c2c(nc3c1C(c1ccc(Cl)cc1)c1c(-c4ccccc4)n[nH]c1O3)CCCCC2` (stereo unspecified): the pIC50 was 7.11 on Cholinesterase and 5.72 against Acetylcholinesterase [1].
In the same order, the values of `CCCc1n[nH]c2c1C(c1ccc(Cl)cc1)c1c(nc3c(c1N)CCCC3)O2` (stereo unspecified) are 8.00 and 6.70.
For the compound `Nc1c2c(nc3c1C(c1ccccc1)c1c(-c4ccccc4)n[nH]c1O3)CCCCC2` (stereo unspecified), the pIC50 at Cholinesterase was 8.05; against Acetylcholinesterase [1] it was 7.27.
For `Nc1c2c(cc3c1C(c1ccc(Cl)cc1)c1c(-c4ccccc4)n[nH]c1O3)CCCC2` (stereo unspecified), the pIC50 is 7.68 against Cholinesterase and 6.59 at Acetylcholinesterase [1].
For `CCCc1n[nH]c2c1C(c1cccc([N+](=O)[O-])c1)c1c(nc3c(c1N)CCCC3)O2` (stereo unspecified), the pIC50 against Cholinesterase is 7.92; against Acetylcholinesterase [1], 6.37.
For the compound `CCCc1n[nH]c2c1C(c1ccc(Cl)cc1)c1c(nc3c(c1N)CSCC3)O2` (stereo unspecified), the pIC50 against Cholinesterase was 7.82; against Acetylcholinesterase [1] it was 6.52.
With `CCCc1n[nH]c2c1C(c1ccc(OC)c(OC)c1)c1c(nc3c(c1N)CCCC3)O2` (stereo unspecified), the pIC50 on Cholinesterase is 6.44; against Acetylcholinesterase [1], 5.83.
For `CCCc1n[nH]c2c1C(c1cccc(Br)c1)c1c(nc3c(c1N)CCCC3)O2` (stereo unspecified), the values for the pIC50 at Cholinesterase and against Acetylcholinesterase [1] were 7.82 and 6.33, respectively.
For `CCCc1n[nH]c2c1C(c1ccc(C)cc1)c1c(nc3c(c1N)CCCC3)O2` (stereo unspecified), the values for the pIC50 against Cholinesterase and on Acetylcholinesterase [1] were 7.89 and 6.92, respectively.
In the same order, the values of `CCCc1n[nH]c2c1C(c1ccc([N+](=O)[O-])cc1)c1c(nc3c(c1N)CCCC3)O2` (stereo unspecified) are 7.54 and 6.13.
For the compound `CC(C)C1c2c(-c3ccccc3)n[nH]c2Oc2nc3c(c(N)c21)CCCC3` (stereo unspecified), the pIC50 was 6.24 against Cholinesterase and 4.82 at Acetylcholinesterase [1].
Regarding `CCCc1n[nH]c2c1C(c1ccc(C)cc1)c1c(nc3c(c1N)CSCC3)O2` (stereo unspecified), the pIC50 is 7.14 at Cholinesterase and 5.99 on Acetylcholinesterase [1].
Consider `Nc1c2c(nc3c1C(c1ccccc1)c1c(-c4ccco4)nn(-c4ccccc4)c1O3)CCCC2` (stereo unspecified), for which the viability at 24 h, 300 µM in the data set “in vitro [2]” stood at 67.4%. Besides, the negative logarithm of the IC50 (pIC50) was 8.30 on Cholinesterase and 7.14 at Acetylcholinesterase [1]. Besides, the viability at 24 h, 5 µM in “in vitro [3]” amounted to 95.8%. In addition, in the data set “in vitro [4]”, the viability at 24 h, 10 µM amounted to 90.3%. For the same compound, the viability at 24 h, 25 µM in “in vitro [5]” is 85%. In the data set “in vitro [6]”, the viability at 24 h, 1 µM is 99.6%. Further, the viability at 24 h, 100 µM in “in vitro [7]” came out at 75.7%. The viability at 24 h, 50 µM in “in vitro [8]” turned out to be 81.4%.
On to `Cc1ccc(C2c3c(-c4ccccc4)n[nH]c3Oc3cc4c(c(N)c32)CCCC4)cc1` (stereo unspecified), for which the pIC50 against Cholinesterase was 7.96; against Acetylcholinesterase [1], 7.01.

The values are drawn from ChEMBL document CHEMBL3870313, “Synthesis and structure-activity relationship study of tacrine-based pyrano[2,3-c]pyrazoles targeting AChE/BuChE and 15-LOX” (Eur J Med Chem, 2016).
